Test results as given in US20140024527A1, “HERBICIDAL PYRAZINONES” (E I DU DE NEMOURS AND COMPANY, priority 2011, published 2014).

Key:
Assay type in all cases: in vivo
[1] = tested on: barnyardgrass (Echinochloa crus-galli); assay: Test A postemergence; conditions: 0 to 100 scale, 0 no effect, 100 complete control, approx. 10 days
Text: (§1) Seeds of barnyardgrass (Echinochloa crus-galli), large crabgrass (Digitaria sanguinalis), giant foxtail (Setaria faberii), morningglory (Ipomoea spp.), pigweed (Amaranthus retroflexus), velvetleaf (Abutilon theophrasti), wheat (Triticum aestivum) and corn (Zea mays) were planted into a blend of loam soil and sand and treated preemergence with a directed soil spray using test chemicals formulated in a non-phytotoxic solvent mixture which included a surfactant. At the same time these species were also treated with postemergence applications of test compounds formulated in the same manner. Plants ranged in height from 2 to 10 cm and were in the one- to two-leaf stage for the postemergence treatments. Treated plants and untreated controls were maintained in a greenhouse for approximately 10 days, after which time all treated plants were compared to untreated controls and visually evaluated for injury. Plant response ratings, summarized in Table A, are based on a 0 to 100 scale where 0 is no effect and 100 is complete control.

[2] = tested on: corn (Zea mays); assay: Test A postemergence; conditions: 0 to 100 scale, 0 no effect, 100 complete control, approx. 10 days
Text: as §1

[3] = tested on: giant foxtail (Setaria faberii); assay: Test A postemergence; conditions: 0 to 100 scale, 0 no effect, 100 complete control, approx. 10 days
Text: as §1

[4] = tested on: large crabgrass (Digitaria sanguinalis); assay: Test A postemergence; conditions: 0 to 100 scale, 0 no effect, 100 complete control, approx. 10 days
Text: as §1

[5] = tested on: morningglory (Ipomoea spp.); assay: Test A postemergence; conditions: 0 to 100 scale, 0 no effect, 100 complete control, approx. 10 days
Text: as §1

[6] = tested on: pigweed (Amaranthus retroflexus); assay: Test A postemergence; conditions: 0 to 100 scale, 0 no effect, 100 complete control, approx. 10 days
Text: as §1

[7] = tested on: velvetleaf (Abutilon theophrasti); assay: Test A postemergence; conditions: 0 to 100 scale, 0 no effect, 100 complete control, approx. 10 days
Text: as §1

[8] = tested on: wheat (Triticum aestivum); assay: Test A postemergence; conditions: 0 to 100 scale, 0 no effect, 100 complete control, approx. 10 days
Text: as §1

[9] = tested on: barnyardgrass (Echinochloa crus-galli); assay: Test A preemergence; conditions: 0 to 100 scale, 0 no effect, 100 complete control, approx. 10 days
Text: as §1

[10] = tested on: corn (Zea mays); assay: Test A preemergence; conditions: 0 to 100 scale, 0 no effect, 100 complete control, approx. 10 days
Text: as §1

[11] = tested on: giant foxtail (Setaria faberii); assay: Test A preemergence; conditions: 0 to 100 scale, 0 no effect, 100 complete control, approx. 10 days
Text: as §1

[12] = tested on: large crabgrass (Digitaria sanguinalis); assay: Test A preemergence; conditions: 0 to 100 scale, 0 no effect, 100 complete control, approx. 10 days
Text: as §1

[13] = tested on: morningglory (Ipomoea spp.); assay: Test A preemergence; conditions: 0 to 100 scale, 0 no effect, 100 complete control, approx. 10 days
Text: as §1

[14] = tested on: pigweed (Amaranthus retroflexus); assay: Test A preemergence; conditions: 0 to 100 scale, 0 no effect, 100 complete control, approx. 10 days
Text: as §1

[15] = tested on: velvetleaf (Abutilon theophrasti); assay: Test A preemergence; conditions: 0 to 100 scale, 0 no effect, 100 complete control, approx. 10 days
Text: as §1

[16] = tested on: wheat (Triticum aestivum); assay: Test A preemergence; conditions: 0 to 100 scale, 0 no effect, 100 complete control, approx. 10 days
Text: as §1

[17] = tested on: barnyardgrass (Echinochloa crus-galli); assay: Test B flooded paddy test; conditions: Flood
Text: (§2) Plant species in the flooded paddy test consisted of rice (Oryza sativa), umbrella sedge (Cyperus difformis), ducksalad (Heteranthera limosa) and barnyardgrass (Echinochloa crus-galli) grown to the 2-leaf stage for testing. At time of treatment, test pots were flooded to 3 cm above the soil surface, treated by application of test compounds directly to the paddy water, and then maintained at that water depth for the duration of the test. Treated plants and controls were maintained in a greenhouse for 13 to 15 days, after which time all species were compared to controls and visually evaluated. Plant response ratings, summarized in Table B, are based on a scale of 0 to 100 where 0 is no effect and 100 is complete control. A dash (-) response means no test result.

[18] = tested on: ducksalad (Heteranthera limosa); assay: Test B flooded paddy test; conditions: Flood, scale 0 to 100
Text: as §2

[19] = tested on: rice (Oryza sativa); assay: Test B flooded paddy test; conditions: Flood, scale 0 to 100
Text: as §2

[20] = tested on: umbrella sedge (Cyperus difformis); assay: Test B flooded paddy test; conditions: Flood, scale 0 to 100
Text: as §2

## CCCCn1c(-c2ccccc2)cnc(C(=O)C2=C(O)CCCC2=O)c1=O [Compound 1, 1-butyl-3-[(2-hydroxy-6-oxo-1-cyclohexen-1-yl)carbonyl]-6-phenyl-2(1H)-pyrazinone]
[1]; 125 g ai/ha
  Plant response rating, Barnyardgrass: 10
[1]; 500 g ai/ha
  Plant response rating, Barnyardgrass: 80
[2]; 125 g ai/ha
  Plant response rating, Corn: 0
[2]; 500 g ai/ha
  Plant response rating, Corn: 10
[3]; 125 g ai/ha
  Plant response rating, Foxtail, Giant: 10
[3]; 500 g ai/ha
  Plant response rating, Foxtail, Giant: 40
[4]; 125 g ai/ha
  Plant response rating, Crabgrass, Large: 10
[4]; 500 g ai/ha
  Plant response rating, Crabgrass, Large: 50
[5]; 125 g ai/ha
  Plant response rating, Morningglory: 40
[5]; 500 g ai/ha
  Plant response rating, Morningglory: 100
[6]; 125 g ai/ha
  Plant response rating, Pigweed: 60
[6]; 500 g ai/ha
  Plant response rating, Pigweed: 100
[7]; 125 g ai/ha
  Plant response rating, Velvetleaf: 100
[7]; 500 g ai/ha
  Plant response rating, Velvetleaf: 100
[8]; 125 g ai/ha
  Plant response rating, Wheat: 0
[8]; 500 g ai/ha
  Plant response rating, Wheat: 0
[9]; 125 g ai/ha
  Plant response rating, Barnyardgrass: 0
[9]; 500 g ai/ha
  Plant response rating, Barnyardgrass: 80
[10]; 125 g ai/ha
  Plant response rating, Corn: 0
[10]; 500 g ai/ha
  Plant response rating, Corn: 0
[11]; 125 g ai/ha
  Plant response rating, Foxtail, Giant: 0
[11]; 500 g ai/ha
  Plant response rating, Foxtail, Giant: 30
[12]; 125 g ai/ha
  Plant response rating, Crabgrass, Large: 10
[12]; 500 g ai/ha
  Plant response rating, Crabgrass, Large: 40
[13]; 125 g ai/ha
  Plant response rating, Morningglory: 0
[13]; 500 g ai/ha
  Plant response rating, Morningglory: 70
[14]; 125 g ai/ha
  Plant response rating, Pigweed: 60
[14]; 500 g ai/ha
  Plant response rating, Pigweed: 100
[15]; 125 g ai/ha
  Plant response rating, Velvetleaf: 50
[15]; 500 g ai/ha
  Plant response rating, Velvetleaf: 100
[16]; 125 g ai/ha
  Plant response rating, Wheat: 0
[16]; 500 g ai/ha
  Plant response rating, Wheat: 0
[17]; 62 g ai/ha, scale 0 to 100
  Plant response rating, Barnyardgrass: 60
[17]; 250 g ai/ha, scale 0 to 100 (0 no effect, 100 complete control)
  Plant response rating, Barnyardgrass: 80
[18]; 62 g ai/ha
  Plant response rating, Ducksalad: 60
[18]; 250 g ai/ha
  Plant response rating, Ducksalad: 95
[19]; 62 g ai/ha
  Plant response rating, Rice: 70
[19]; 250 g ai/ha
  Plant response rating, Rice: 85
[20]; 62 g ai/ha
  Plant response rating, Sedge, Umbrella: 70
[20]; 250 g ai/ha
  Plant response rating, Sedge, Umbrella: 95
